From patent publication US10881110B2, “Herbicidal compositions comprising isoxazolo[5,4-b]pyridines” (BASF SE, priority 2014, dated 2021) come the findings set out here.

What all share (assay): greenhouse post-emergence herbicidal test
For one test, the system named is PAPRH. The format is in vivo, Papaver rhoeas. On the set-up: key: rating on a scale from 0 to 100. The method, then:
(§1) The culture containers used were plastic pots containing medium loamy sand with approximately 4.6% of humus and 69.9% sand as substrate. The seeds of the test plants were sown separately for each species.
(§2) For the post-emergence treatment, the test plants were grown to a plant height of from 1 to 15 cm, depending on the plant habit, and only then treated with the active compounds which had been suspended or emulsified in water. To this end, the test plants were either sown directly, and grown in the same containers, or they were first grown separately as seedlings and transplanted into the test containers a few days prior to treatment.
(§3) Depending on the species, the plants were kept at 10-25° C. and 20-35° C., respectively.
(§4) The test period extended over 1 to 3 weeks. During this time, the plants were tended and their response to the individual treatments was evaluated 20 days after treatment except mentioned otherwise.
(§5) Evaluation was carried out using a scale from 0 to 100. 100 means no emergence of the plants, or complete destruction of at least the above-ground parts, and 0 means no damage or normal course of growth.
(§6) The respective stated components A and B, and, if appropriate, C, were formulated as a 10% by weight strength emulsion concentrate and, with addition of the amount of solvent system, introduced into the spray liquor used for applying the active compound. In the examples, the solvent used was water.
(§7) In the examples below, using the method of S. R. Colby (1967) “Calculating synergistic and antagonistic responses of herbicide combinations”, Weeds 15, p. 22 ff., the value E, which is expected if the activity of the individual active compounds is only additive, was calculated. E=X+Y−(X·Y/100)

For a further test, the system named is POLCO. The format is in vivo, Polygonum convolvulus. The note with it: for herbicidal activity against POLCO found: post emergence. On the set-up: key to herbicidal activity against POLCO found: rating on a scale from 0 to 100. In a few lines: (§8)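 Herbicidal activity scored on a 0 (no damage) to 100 (plants destroyed) scale, usually 20 days after water-based spraying of 1–15 cm plants grown in loamy sand at 10-25 °C or 20-35 °C depending on species. Components were applied from 10% emulsion concentrates; Colby's E=X+Y−(X·Y/100) gives the additive expectation.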

The next test relates to ECHCG. The format is in vivo, Echinochloa crus-galli. The note with it: post emergence. On the set-up: key to herbicidal activity against ECHCG found / herbicidal activity against ECHCH found: scale 0 to 100. The method, then:
as §1, §2, §3, §4, §5, §6, §7

A further test relates to GERDI. It counts as in vivo, Geranium dissectum. On the set-up: key to herbicidal activity against GERDI found: rating on a scale from 0 to 100. Particulars: post emergence. The gist of the method:
as §8

In another test the test system is IPOHE. The format is in vivo, Ipomoea hederacea. On the set-up: key to herbicidal activity against IPOHE found: rating on a scale from 0 to 100. The note with it: post emergence. In a few lines: as §8
The subject of a further test is MATCH. The format is in vivo, Matricaria recutita. On the set-up: key to herbicidal activity against MATCH found: rating on a scale from 0 to 100. The gist of the method: as §8
A further test relates to APESV. It counts as in vivo, Apera spica-venti. On the set-up: key to herbicidal activity against APESV found: rating on a scale from 0 to 100. The note with it: for herbicidal activity against APESV found: post emergence, B.95 1 g/ha a.i. The gist of the method: as §8
The test system of another test is ABUTH. The format is in vivo, Abutilon theophrast. On the set-up: key to herbicidal activity against ABUTH found: rating on a scale from 0 to 100. In a few lines:
as §8

The subject of another test is ALOMY. The format is in vivo, Alopecurus myosuroides. On the set-up: key to herbicidal activity against ALOMY found: rating on a scale from 0 to 100. In a few lines:
as §8

Another test deals with KCHSC. It counts as in vivo, Kochia scoparia. The note with it: Bassia scoparia, post-emergence, 480 h, read-out: herbicidal activity against KCHSC found. The gist of the method:
as §8

The test system of the next test is STEME. The format is in vivo, Stellaria media. On the set-up: key: scale 0 to 100. How it is done: as §1, §2, §3, §4, §5, §6, §7
The subject of another test is VIOAR. It counts as in vivo, Viola arvensis. On the set-up: key to herbicidal activity against VIOAR found / herbicidal activity against VIOLA found: rating on a scale from 0 to 100. The gist of the method:
as §8

The test system of a further test is GALAP. The format is in vivo, Galium aparine. On the set-up: key to herbicidal activity against GALAP found: rating on a scale from 0 to 100. The note with it: post emergence. The gist of the method:
as §8

A further test has as its system ERICA. It counts as in vivo, Conyza canadensis. On the set-up: key to herbicidal activity against ERICA found: rating on a scale from 0 to 100. The note with it: post emergence. In a few lines: as §8
Setting [1] is: application rate a.i.: I.1 62.5 g/ha, B.40 (imazethapyr) 7.5 g/ha, alone or as mixture (composition 1.40).
[2] abbreviates: application rate a.i.: I.1 31.25 g/ha, B.40 (imazethapyr) 7.5 g/ha, alone or as mixture (composition 1.40).
The mark [3] stands for this setting: Matricaria chamomilla, post-emergence, 480 h, read-out: herbicidal activity against MATCH found.
[4] abbreviates: I.1 62.5 g/ha, B.89 25 g/ha a.i.
Setting [5] is: I.1 15.62 g/ha, B.89 25 g/ha a.i.
[6] abbreviates: I.1 62.5 g/ha, B.89 12.5 g/ha a.i.
Where [7] appears, read: I.1 31.25 g/ha, B.89 25 g/ha a.i.
[8] abbreviates: post emergence, I.1 62.5 g/ha, B.89 12.5 g/ha a.i.
Where [9] appears, read: I.1 15.62 g/ha, B.95 1 g/ha a.i.
Where [10] appears, read: I.1 31.25 g/ha, B.95 1 g/ha a.i.
[11] abbreviates: I.1 31.25 g/ha, B.95 2 g/ha a.i.
The mark [12] stands for this setting: I.1 62.5 g/ha, B.95 1 g/ha a.i.
[13] abbreviates: I.1 62.5 g/ha, B.95 2 g/ha a.i.
The mark [14] stands for this setting: post emergence, I.1 31.25 g/ha, B.95 1 g/ha a.i.
Where [15] appears, read: a.i. g/ha: I.1 62.5, B.191 225, 20 days after treatment.

`CCc1cnc(C2=NC(C)(C(C)C)C(=O)N2)c(C(=O)O)c1` (centres unmarked) [B.40, imazethapyr]: the “herbicidal activity against PAPRH found” value in the test on PAPRH (setting [1]) is recorded as 45. Moreover, the “herbicidal activity against POLCO found” value with POLCO (setting [2]) is given as 80. The “herbicidal activity against ECHCG found” value in the test on ECHCG (setting [2]) was 85. Besides, the entries for the “herbicidal activity against GERDI found” value in the test on GERDI (setting [2]) and in the test on GERDI (setting [1]) were 95 and 90, respectively. Besides, in the test with IPOHE (setting [1]), the “herbicidal activity against IPOHE found” value was found to be 80.
`C/C(=N\NC(=O)Nc1cc(F)cc(F)c1)c1ncccc1C(=O)O` [B.174, diflufenzopyr]: the pest or weed control at 20 g/ha with MATCH (setting [3]) came to 70%; in the test on POLCO (Fallopia convolvulus, post-emergence, 480 h, read-out: herbicidal activity against POLCO found), 30%; in the test with APESV (Apera spica-venti, post-emergence, 480 h, read-out: herbicidal activity against APESV found) it was 0%; in the test with ABUTH (Abutilon theophrasti, post-emergence, 480 h, read-out: herbicidal activity against ABUTH found), 85%; with ALOMY (Alopecurus myosuroides, post-emergence, 480 h, read-out: herbicidal activity against ALOMY found) it was 0%; in the test on KCHSC, 65%. Also, the pest or weed control at 40 g/ha is 70% with MATCH (setting [3]) and 65% in the test with VIOAR (Viola arvensis, post-emergence, read-out: herbicidal activity against VIOAR found). Besides, in the test with STEME (B.174 alone 40 g/ha a.i.), the “herbicidal activity against STEME found” value was found to be 50.
For the compound `C#CCOC(=O)[C@@H](C)Oc1ccc(Oc2ncc(Cl)cc2F)cc1` [B.2, clodinafop-propargyl], the pest or weed control at 15 g/ha was 0% in the test with MATCH (Matricaria chamomilla, post-emergence, 480 h, post emergence, 15 g/ha a.i., read-out: herbicidal activity against MATCH found); 40% in the test on IPOHE (Ipomoea hederacea, post-emergence, 480 h, 15 g/ha a.i., read-out: herbicidal activity against IPOHE found); 15% with ABUTH (Abutilon theophrasti, post-emergence, 480 h, post emergence, 15 g/ha a.i., read-out: herbicidal activity against ABUTH found); 85% in the test on ALOMY (Alopecurus myosuroides, post-emergence, 480 h, post emergence, 15 g/ha a.i., read-out: herbicidal activity against ALOMY found). The pest or weed control at 7.5 g/ha with GALAP (Galium aparine, post-emergence, 480 h, 7.5 g/ha a.i., read-out: herbicidal activity against GALAP found) was determined as 0%; in the test on GERDI (Geranium dissectum, post-emergence, 480 h, 7.5 g/ha a.i., read-out: herbicidal activity against GERDI found) it was 0%; with IPOHE (Ipomoea hederacea, post-emergence, 480 h, 7.5 g/ha a.i., read-out: herbicidal activity against IPOHE found) it was 10%. The “herbicidal activity against STEME found” value in the test on STEME (7.5 g/ha a.i.) was 0.
For the compound `CS(=O)(=O)NC(=O)c1cc(Oc2ccc(C(F)(F)F)cc2Cl)ccc1[N+](=O)[O-]` [B.89, fomesafen], in the test with ERICA (setting [4]), the “herbicidal activity against ERICA found” value is 20. In addition, in the test on POLCO (I.1 15.62 g/ha, B.89 12.5 g/ha a.i.), the “herbicidal activity against POLCO found” value was found to be 95. Further, the “herbicidal activity against GERDI found” value in the test on GERDI (setting [5]), in the test on GERDI (setting [6]) and in the test on GERDI (setting [4]) was 25 each time. In addition, the “herbicidal activity against IPOHE found” value in the test on IPOHE (setting [5]), in the test with IPOHE (setting [7]), with IPOHE (setting [6]) and with IPOHE (setting [4]) was 85 in each case. Moreover, the “herbicidal activity against ABUTH found” value with ABUTH (post emergence, I.1 31.25 g/ha, B.89 25 g/ha a.i.) turned out to be 90. The “herbicidal activity against ALOMY found” value in the test with ALOMY (setting [8]) was 25. For the same compound, the “herbicidal activity against STEME found” value in the test on STEME (setting [5]) was 0; with STEME (I.1 31.25 g/ha, B.89 12.5 g/ha a.i.), 0; in the test with STEME (setting [7]), 0. Also, the “herbicidal activity against VIOAR found” value in the test on VIOAR (setting [8]) worked out at 55.
For the compound `C#CCN1C(=O)C(F)(F)Oc2cc(F)c(-n3c(=O)n(C)c(=S)n(C)c3=O)cc21` [B.95, trifludimoxazin], the “herbicidal activity against ERICA found” value with ERICA (setting [9]) was 40; in the test with ERICA (I.1 15.62 g/ha, B.95 2 g/ha a.i.), 45; with ERICA (setting [10]), 40; in the test with ERICA (setting [11]) it was 45; with ERICA (setting [12]), 40; in the test on ERICA (setting [13]), 45. Moreover, the “herbicidal activity against MATCH found” value in the test with MATCH (post emergence, I.1 15.62 g/ha, B.95 1 g/ha a.i.) was determined as 30; in the test on MATCH (setting [14]), 30; in the test with MATCH (post emergence, I.1 31.25 g/ha, B.95 2 g/ha a.i.), 65; with MATCH (post emergence, I.1 62.5 g/ha, B.95 2 g/ha a.i.), 65. The “herbicidal activity against PAPRH found” value with PAPRH (setting [10]) and in the test on PAPRH (setting [12]) was 35 throughout. The “herbicidal activity against GALAP found” value in the test with GALAP (setting [10]), in the test with GALAP (setting [11]) and in the test with GALAP (setting [13]) was 75 each time. Also, the “herbicidal activity against ECHCG found” value in the test on ECHCG (setting [9]) is 25; in the test with ECHCG (setting [13]), 45. Also, the “herbicidal activity against GERDI found” value in the test on GERDI (setting [12]) and in the test with GERDI (setting [13]) was 65 throughout. Moreover, the “herbicidal activity against APESV found” value in the test with APESV (I.1 15.62 g/ha) and with APESV (I.1 62.5 g/ha) was 30 each time. Besides, the “herbicidal activity against ALOMY found” value in the test on ALOMY (setting [14]) came to 25; in the test with ALOMY (post emergence, I.1 62.5 g/ha, B.95 1 g/ha a.i.), 25.
In the case of `CCCCCCCCSC(=O)Oc1cc(Cl)nnc1-c1ccccc1` [B.191, pyridate], the “herbicidal activity against ERICA found” value in the test on ERICA (setting [15]) was determined as 70%. Also, in the test on MATCH (post emergence, a.i. g/ha: I.1 62.5, B.191 225, 20 days after treatment), the “herbicidal activity against MATCH found” value came to 20%. Besides, in the test on GALAP (setting [15]), the “herbicidal activity against GALAP found” value is 90%. In the test on STEME (setting [15]), the “herbicidal activity against STEME found” value was 0%.
